Where two headings read alike, the source gives them in different places.
Experiments:
coronavirus (SARS-CoV-2) = conditions: for time until all of the subject's symptoms resolved after initial treatment: 200 ng sublingual every 15 minutes for one hour, then hourly until bedtime
[1] = test system: pro-inflammatory cytokines; anti-inflammatory genes; conditions: genomic studies, no details given
[2] = Example 4: person, after less than 48 hours of therapy

## C[CH2][Hg][S]c1ccccc1C(=O)[O-].[Na+] [thimerosal]
Coronavirus (SARS-CoV-2); Example 1: person, positive SARS-CoV-2 test, fever 104° F., shortness of breath, cough
  time until all of the subject's symptoms resolved after initial treatment: 20 to 24 h
Coronavirus (SARS-CoV-2); Example 2: person, symptoms of SARS-CoV-2 infection (fever 103° F., lethargy, shortness of breath, achiness)
  time until all of the subject's symptoms resolved after initial treatment: ≤ 24 h
Coronavirus (SARS-CoV-2); Example 3: person, 72 hours after initial treatment
  weakness: only partially improved
Coronavirus (SARS-CoV-2); Example 3: person, presumptive SARS-CoV-2 (fever, weakness, shortness of breath, cough), 200 ng sublingual, day 1 schedule, then six times daily on days two and three
  time until all of the subject's symptoms resolved after initial treatment (with the exception of weakness): 72 h
Coronavirus (SARS-CoV-2); [2]
  chest pain: not completely eliminated
  subject-reported energy, appetite and taste: increased energy, increased appetite and improved ability to taste
Coronavirus (SARS-CoV-2); Example 4: person, positive SARS-CoV-2 test (cough, mild fever, aching, decreased energy, stomach pain), 200 ng sublingual, day 1 schedule, then six times daily on day two
  time of therapy until subject reported diminution of all symptoms: less than 48 hours
[1]
  effect on other anti-inflammatory genes: up-regulating
  effect on several pro-inflammatory cytokines: down-regulates

Reference: patent publication US20230398090A1, “METHOD OF TREATING CORONAVIRUS INFECTION BY ADMINISTRATION OF ETHYL MERCURY OR THIOL DERIVATIVE THEREOF” (BEECH TREE LABS, INC., priority 2020, published 2023)
